According to ChEMBL document CHEMBL1201862, “PubChem BioAssay data set” (2004):
Active and inactive are the calls of the source.

Key:
Exodeoxyribonuclease V = Exodeoxyribonuclease V (Escherichia coli (strain K12), UniProt P04993+P07648+P08394); test: E. coli RecBCD inhibitors, dose response, counter-screen for AddAB inhibitor project, absorbance, V66 E. coli, mutant T4 phage (AID 492957); assay type: functional, cell-based, Escherichia coli str. K-12 substr. MG1655
[1] = Counterscreen for AddAB inhibitors: absorbance-based bacterial cell-based high throughput dose response assay for inhibitors of bacterial viability. [Related pubchem assays (depositor defined):AID435030, AID449728, AID449731, AID488942, AID488955, AID488956]; assay type: functional
[2] = target: T1, High affinity choline transporter 1 (Homo sapiens, UniProt Q9GZV3); test: CHT inhibitors, dose response, cell-based, 5-point CRC, membrane potential dye (AID 504840); assay type: functional
T1 sequence (Q9GZV3 whole entry): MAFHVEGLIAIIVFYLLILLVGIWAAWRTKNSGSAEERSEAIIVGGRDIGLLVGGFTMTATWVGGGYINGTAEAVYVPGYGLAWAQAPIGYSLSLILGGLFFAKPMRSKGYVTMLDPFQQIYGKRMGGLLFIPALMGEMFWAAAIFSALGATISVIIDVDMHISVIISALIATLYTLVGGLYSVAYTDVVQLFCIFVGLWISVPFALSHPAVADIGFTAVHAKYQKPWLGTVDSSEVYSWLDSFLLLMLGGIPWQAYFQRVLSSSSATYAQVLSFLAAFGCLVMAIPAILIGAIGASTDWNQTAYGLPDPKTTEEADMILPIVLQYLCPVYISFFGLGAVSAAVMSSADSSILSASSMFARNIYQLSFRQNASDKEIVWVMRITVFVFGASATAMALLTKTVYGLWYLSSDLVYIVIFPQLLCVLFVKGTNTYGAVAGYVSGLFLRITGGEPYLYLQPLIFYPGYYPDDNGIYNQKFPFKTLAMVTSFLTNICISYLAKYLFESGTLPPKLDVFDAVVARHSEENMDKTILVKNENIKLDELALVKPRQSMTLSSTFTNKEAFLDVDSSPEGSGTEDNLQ

[3] = target: Eukaryotic translation initiation factor 4H (Homo sapiens, UniProt Q15056); test: human eIF4H binding inhibitors, primary screen, translation initiation inhibitor project, biochemical, uHTS, fluorescence polarization (AID 2012)
[4] = target: Polyadenylate-binding protein 1 (Homo sapiens, UniProt P11940); test: PABP poly(A) RNA binding inhibitors, primary screen, biochemical, fluorescence polarization, uHTS (AID 2014)
[5] = target: T2, Intestinal-type alkaline phosphatase (Mus musculus, UniProt P24822); test: PubChem AID 488785; assay type: functional
[6] = target: T3, Alkaline phosphatase, tissue-nonspecific isozyme (Homo sapiens, UniProt P05186); test: TNAP enzyme inhibition by screening hits, dose response, selectivity assay for mouse IAP inhibitor project, biochemical, human TNAP, uHTS hits (AID 488906); assay type: functional
T3 sequence (P05186 whole entry): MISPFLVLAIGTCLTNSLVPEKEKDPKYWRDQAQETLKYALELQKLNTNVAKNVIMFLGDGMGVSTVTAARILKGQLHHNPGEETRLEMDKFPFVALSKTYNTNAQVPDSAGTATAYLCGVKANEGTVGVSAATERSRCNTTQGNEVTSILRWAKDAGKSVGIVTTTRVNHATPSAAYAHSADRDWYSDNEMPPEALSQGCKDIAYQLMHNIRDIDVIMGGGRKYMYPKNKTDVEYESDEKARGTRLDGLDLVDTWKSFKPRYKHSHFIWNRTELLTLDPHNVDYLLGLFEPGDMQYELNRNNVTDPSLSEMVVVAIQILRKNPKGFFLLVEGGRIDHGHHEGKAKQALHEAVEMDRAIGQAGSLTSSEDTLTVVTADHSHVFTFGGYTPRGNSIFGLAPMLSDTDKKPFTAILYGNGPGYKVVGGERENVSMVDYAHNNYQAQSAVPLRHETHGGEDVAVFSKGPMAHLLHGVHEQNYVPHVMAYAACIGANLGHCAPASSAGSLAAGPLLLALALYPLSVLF

[7] = target: T4, Intestinal-type alkaline phosphatase (Homo sapiens, UniProt P09923); test: inhibition of human intestinal alkaline phosphatase – biochemical, dose response (AID 488876); assay type: functional
[8] = target: T5, Short transient receptor potential channel 4 (Mus musculus, UniProt Q9QUQ5); test: mouse TRPC4 channel inhibitors, dose response, cell-based, HEK293 TRPC4/mu-opioid, Fluo-4 calcium (AID 434942); assay type: functional;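 also: potency of inhibitors blocking the TRPC4 calcium response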
T5 sequence (Q9QUQ5 whole entry): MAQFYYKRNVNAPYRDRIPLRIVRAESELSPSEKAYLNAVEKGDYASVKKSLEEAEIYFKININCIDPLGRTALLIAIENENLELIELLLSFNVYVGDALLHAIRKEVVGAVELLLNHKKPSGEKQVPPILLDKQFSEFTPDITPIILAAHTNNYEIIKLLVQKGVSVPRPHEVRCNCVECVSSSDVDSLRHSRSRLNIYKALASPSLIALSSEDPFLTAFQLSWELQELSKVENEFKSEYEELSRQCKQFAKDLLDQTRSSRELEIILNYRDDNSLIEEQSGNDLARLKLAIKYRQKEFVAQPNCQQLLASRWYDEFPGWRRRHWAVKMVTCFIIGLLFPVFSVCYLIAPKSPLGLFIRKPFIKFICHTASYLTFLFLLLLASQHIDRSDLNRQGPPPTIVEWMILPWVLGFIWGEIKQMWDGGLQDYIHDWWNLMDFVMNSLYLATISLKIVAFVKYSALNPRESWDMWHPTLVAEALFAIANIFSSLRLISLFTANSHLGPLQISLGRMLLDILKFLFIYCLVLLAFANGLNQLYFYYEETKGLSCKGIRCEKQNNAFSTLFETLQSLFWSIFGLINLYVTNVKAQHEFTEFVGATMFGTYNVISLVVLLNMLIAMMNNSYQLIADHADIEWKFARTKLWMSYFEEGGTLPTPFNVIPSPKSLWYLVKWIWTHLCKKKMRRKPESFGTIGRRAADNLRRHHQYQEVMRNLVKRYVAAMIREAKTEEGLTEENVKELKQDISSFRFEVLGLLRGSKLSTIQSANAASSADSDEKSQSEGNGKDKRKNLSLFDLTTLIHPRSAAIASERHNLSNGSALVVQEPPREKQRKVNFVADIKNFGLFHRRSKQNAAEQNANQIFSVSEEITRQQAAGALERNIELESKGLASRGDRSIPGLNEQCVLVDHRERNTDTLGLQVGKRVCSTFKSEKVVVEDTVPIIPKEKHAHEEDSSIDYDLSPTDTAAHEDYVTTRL

[9] = target: T2, Intestinal-type alkaline phosphatase; test: PubChem AID 488875; assay type: functional
[10] = target: T4, Intestinal-type alkaline phosphatase; test: human intestinal alkaline phosphatase activators, dose response, biochemical, luminescence, uHTS hits (AID 463120); assay type: functional
[11] = target: T4, Intestinal-type alkaline phosphatase; test: human IAP activators, dose response, biochemical, luminescent, uHTS hits, set 2 (AID 488817); assay type: functional;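 also: potency of activators that raise enzyme activity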
[12] = target: T3, Alkaline phosphatase, tissue-nonspecific isozyme; test: TNAP enzyme activators, dose response, selectivity assay for human IAP activator project, biochemical, TNAP isozyme, human IAP uHTS hits (AID 488886); assay type: functional;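 also: potency of compounds raising TNAP activity as a selectivity check on IAP activators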
[13] = NIH-3T3 fibroblast cytotoxicity, dose response, cytotoxicity control, cell-based, fluorescence, Alamar Blue, secondary assay (AID 2327); assay type: functional;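 also: NIH-3T3 mouse fibroblasts cultured with fluconazole at 8 µg/mL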
[14] = insulin promoter down-regulators in MIN6 cells, imaging, high-content screening, mouse beta cells (AID 1628); assay type: functional
[15] = cytotoxicity in MIN6 insulinoma cells, dose response, cytotoxicity control, cell-based, mouse insulinoma (AID 2122); assay type: functional;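 also: confirmatory high-throughput counterscreen run to flag cytotoxic compounds; mouse MIN-6 beta cells carrying an insulin promoter eGFP reporter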
[16] = C. albicans growth with fluconazole, confirmation, fluorescence, retest (AID 2467); assay type: functional, cell-based
[17] = THP-1 cell cytotoxicity, dose response, cytotoxicity control for non-replicating M. tuberculosis project (AID 489025); assay type: functional
[18] = HepG2 cell cytotoxicity, dose response, cytotoxicity control for non-replicating M. tuberculosis project (AID 489018); assay type: functional; details: Mycobacterium tuberculosis
cells = assay type: functional
[19] = inhibitors of HIV Env-driven cell fusion, dose response, cherry-pick (AID 652057); assay type: functional, cell-based
[20] = CEM21 lymphoblast cell cytotoxicity, dose response, cytotoxicity control for viral fusion inhibitor project, CellTiter-Glo luminescence, cherry-picked (AID 652042); assay type: functional, cell-based;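 also: potency for signal decrease meaning cytotoxicity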
[21] = ZM109 Env clade C HIV-1 fusion inhibitors, dose response, HeLa effector, CEM target cells, luciferase, cherry-pick (AID 652058); assay type: functional, cell-based
[22] = off-target signal loss in HeLa-CEM21 co-culture – HeLa F-luc CTL cells, cherry-picked, counter-screen for HIV-1 Env fusion inhibitor project, dose response (AID 652040); assay type: functional, cell-based;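 also: potency for signal decrease marking cytotoxic or nonspecific inhibition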
[23] = inhibitors of clade B AD8 Env fusion, dose response, cell-based, cherry-pick (AID 652062); assay type: functional;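 also: luciferase signal from cell-cell fusion driven by HIV-1 clade B AD8 Env; potency is for inhibitors of fusion seen as a drop in luminescence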
[24] = target: Sphingosine 1-phosphate receptor 5 (Homo sapiens, UniProt Q9H228); test: Late stage counterscreen assay for S1P4 antagonists: Fluorescence dose response cell-based screening assay for antagonists of the Sphingosine 1-Phosphate Receptor 5 (S1P5). [Related pubchem assays (depositor defined):AID1510, AID1524, AID1692, AID1853, AID2332, AID489009, AID489017]; assay type: functional
[25] = target: Sphingosine 1-phosphate receptor 3 (Homo sapiens, UniProt Q99500); test: Late stage counterscreen assay for S1P4 antagonists: Fluorescence dose response cell-based screening assay for antagonists of the Sphingosine 1-Phosphate Receptor 3 (S1P3). [Related pubchem assays (depositor defined):AID1510, AID1524, AID1692, AID1853, AID2332, AID489009, AID489017]; assay type: functional
[26] = target: Sphingosine 1-phosphate receptor 1 (Homo sapiens, UniProt P21453); test: Late stage counterscreen assay for S1P4 antagonists: Fluorescence dose response cell-based screening assay for antagonists of the Sphingosine 1-Phosphate Receptor 1 (S1P1). [Related pubchem assays (depositor defined):AID1510, AID1524, AID1692, AID1853, AID2332, AID489009, AID489017]; assay type: functional
[27] = target: Sphingosine 1-phosphate receptor 2 (Homo sapiens, UniProt O95136); test: Late stage counterscreen assay for S1P4 antagonists: Fluorescence dose response cell-based screening assay for antagonists of the Sphingosine 1-Phosphate Receptor 2 (S1P2). [Related pubchem assays (depositor defined):AID1510, AID1524, AID1692, AID1853, AID2332, AID489009, AID489017]; assay type: functional
Cytochrome P450 2C19 = Cytochrome P450 2C19 (Homo sapiens, UniProt P33261); test: Cytochrome panel assay with activity outcomes. Panel member name: p450-cyp2c19 Compounds with AC50 equal or less than 10 uM are considered active; assay type: functional
Cytochrome P450 3A4 = Cytochrome P450 3A4 (Homo sapiens, UniProt P08684);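 also: CYP3A4 tested as one member of a cytochrome P450 panel screen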
Cytochrome P450 2D6 = Cytochrome P450 2D6 (Homo sapiens, UniProt P10635);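 also: CYP2D6 member of a cytochrome P450 panel assay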
Cytochrome P450 1A2 = target: T6, Cytochrome P450 1A2 (Homo sapiens, UniProt P05177);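 also: PubChem cytochrome P450 panel assay, CYP1A2 panel member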
T6 sequence (P05177 whole entry): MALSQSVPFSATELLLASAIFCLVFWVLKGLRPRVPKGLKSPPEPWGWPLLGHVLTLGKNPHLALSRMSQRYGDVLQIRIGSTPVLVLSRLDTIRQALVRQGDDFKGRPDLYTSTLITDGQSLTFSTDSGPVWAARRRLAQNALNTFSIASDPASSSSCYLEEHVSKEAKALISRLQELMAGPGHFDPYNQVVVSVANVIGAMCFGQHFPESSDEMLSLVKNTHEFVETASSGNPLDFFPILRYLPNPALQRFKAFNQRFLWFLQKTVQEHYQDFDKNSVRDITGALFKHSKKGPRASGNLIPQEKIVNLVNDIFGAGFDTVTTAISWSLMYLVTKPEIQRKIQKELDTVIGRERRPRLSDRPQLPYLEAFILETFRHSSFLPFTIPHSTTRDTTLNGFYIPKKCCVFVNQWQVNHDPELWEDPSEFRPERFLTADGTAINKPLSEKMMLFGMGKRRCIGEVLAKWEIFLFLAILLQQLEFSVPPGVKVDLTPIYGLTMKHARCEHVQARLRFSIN

Cytochrome P450 2C9 = Cytochrome P450 2C9 (Homo sapiens, UniProt P11712)
Trypsin = Trypsin (Sus scrofa, UniProt P00761); test: porcine trypsin inhibitors, dose response, selectivity assay for Rce1 protease inhibitor project, biochemical, quenched peptide fluorescence, cherry-pick (AID 488789)
CAAX prenyl protease 1 = CAAX prenyl protease 1 (Saccharomyces cerevisiae S288c, UniProt P47154); test: Ste24 protease inhibitors, dose response, biochemical, S. cerevisiae, plate reader, cherry-pick (AID 488815)
Chain of CAAX prenyl protease 1 (P47154 whole entry): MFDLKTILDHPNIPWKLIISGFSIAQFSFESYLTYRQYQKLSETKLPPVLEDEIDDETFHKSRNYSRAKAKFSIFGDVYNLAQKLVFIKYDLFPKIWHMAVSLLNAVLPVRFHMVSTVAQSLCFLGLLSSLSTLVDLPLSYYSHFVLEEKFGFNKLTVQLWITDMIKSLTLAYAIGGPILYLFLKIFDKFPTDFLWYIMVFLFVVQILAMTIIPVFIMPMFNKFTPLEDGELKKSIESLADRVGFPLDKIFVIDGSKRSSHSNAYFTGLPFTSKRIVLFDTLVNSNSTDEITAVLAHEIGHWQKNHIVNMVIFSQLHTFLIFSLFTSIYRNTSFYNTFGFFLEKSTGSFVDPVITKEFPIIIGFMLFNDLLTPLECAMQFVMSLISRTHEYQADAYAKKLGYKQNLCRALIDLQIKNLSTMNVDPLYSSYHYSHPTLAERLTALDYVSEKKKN

T4 sequence (P09923 whole entry): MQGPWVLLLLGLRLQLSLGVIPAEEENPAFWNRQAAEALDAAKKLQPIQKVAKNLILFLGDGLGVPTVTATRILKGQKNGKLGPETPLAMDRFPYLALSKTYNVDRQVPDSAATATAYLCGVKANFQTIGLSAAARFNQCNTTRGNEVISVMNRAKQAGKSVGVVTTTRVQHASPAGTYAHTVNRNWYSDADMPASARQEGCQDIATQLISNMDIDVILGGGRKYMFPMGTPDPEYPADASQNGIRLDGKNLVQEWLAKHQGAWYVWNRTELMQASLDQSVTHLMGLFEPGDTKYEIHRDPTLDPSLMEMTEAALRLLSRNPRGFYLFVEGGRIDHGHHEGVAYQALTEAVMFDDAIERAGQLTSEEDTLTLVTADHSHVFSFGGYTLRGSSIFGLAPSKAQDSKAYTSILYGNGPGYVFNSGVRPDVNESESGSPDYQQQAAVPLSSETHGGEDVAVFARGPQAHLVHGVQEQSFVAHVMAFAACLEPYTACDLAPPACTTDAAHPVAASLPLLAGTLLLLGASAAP
T2 sequence (P24822 whole entry): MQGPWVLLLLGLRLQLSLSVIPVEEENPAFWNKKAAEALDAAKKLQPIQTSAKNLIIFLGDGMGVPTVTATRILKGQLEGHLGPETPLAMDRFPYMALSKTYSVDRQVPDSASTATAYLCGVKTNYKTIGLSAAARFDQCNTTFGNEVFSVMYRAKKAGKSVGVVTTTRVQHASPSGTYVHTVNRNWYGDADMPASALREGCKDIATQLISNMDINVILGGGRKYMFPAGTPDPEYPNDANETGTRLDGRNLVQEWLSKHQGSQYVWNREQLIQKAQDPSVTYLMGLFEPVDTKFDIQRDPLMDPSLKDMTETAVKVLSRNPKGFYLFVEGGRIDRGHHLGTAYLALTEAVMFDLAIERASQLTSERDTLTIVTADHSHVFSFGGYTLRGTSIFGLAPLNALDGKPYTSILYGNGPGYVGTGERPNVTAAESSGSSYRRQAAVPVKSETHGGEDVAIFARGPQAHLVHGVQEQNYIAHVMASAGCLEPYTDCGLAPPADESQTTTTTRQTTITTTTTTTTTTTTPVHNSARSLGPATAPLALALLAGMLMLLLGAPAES
Chain of Cytochrome P450 3A4 (P08684 whole entry): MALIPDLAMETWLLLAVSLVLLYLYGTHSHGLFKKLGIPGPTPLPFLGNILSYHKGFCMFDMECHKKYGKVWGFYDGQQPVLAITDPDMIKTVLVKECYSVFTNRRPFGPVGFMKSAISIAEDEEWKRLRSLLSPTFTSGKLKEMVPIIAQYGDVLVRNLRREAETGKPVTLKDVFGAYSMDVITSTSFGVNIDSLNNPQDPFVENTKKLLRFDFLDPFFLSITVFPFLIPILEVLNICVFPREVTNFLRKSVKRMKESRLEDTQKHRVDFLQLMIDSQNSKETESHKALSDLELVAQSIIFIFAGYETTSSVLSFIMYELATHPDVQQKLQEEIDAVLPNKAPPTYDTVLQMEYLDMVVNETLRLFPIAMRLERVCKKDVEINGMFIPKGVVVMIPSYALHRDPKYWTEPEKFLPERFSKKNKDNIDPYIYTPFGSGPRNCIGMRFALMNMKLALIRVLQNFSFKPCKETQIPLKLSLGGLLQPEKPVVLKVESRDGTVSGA
Chain of Sphingosine 1-phosphate receptor 1 (P21453 whole entry): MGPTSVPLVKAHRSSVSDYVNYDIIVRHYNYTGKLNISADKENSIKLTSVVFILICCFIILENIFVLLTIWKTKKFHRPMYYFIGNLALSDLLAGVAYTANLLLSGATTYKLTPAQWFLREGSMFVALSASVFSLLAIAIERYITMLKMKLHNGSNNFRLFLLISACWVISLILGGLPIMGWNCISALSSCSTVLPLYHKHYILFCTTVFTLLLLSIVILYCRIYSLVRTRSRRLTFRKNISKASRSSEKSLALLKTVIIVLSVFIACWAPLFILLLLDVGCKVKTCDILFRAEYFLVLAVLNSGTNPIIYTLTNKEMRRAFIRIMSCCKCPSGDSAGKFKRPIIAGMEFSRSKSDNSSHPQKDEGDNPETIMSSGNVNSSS
Chain of Sphingosine 1-phosphate receptor 2 (O95136 whole entry): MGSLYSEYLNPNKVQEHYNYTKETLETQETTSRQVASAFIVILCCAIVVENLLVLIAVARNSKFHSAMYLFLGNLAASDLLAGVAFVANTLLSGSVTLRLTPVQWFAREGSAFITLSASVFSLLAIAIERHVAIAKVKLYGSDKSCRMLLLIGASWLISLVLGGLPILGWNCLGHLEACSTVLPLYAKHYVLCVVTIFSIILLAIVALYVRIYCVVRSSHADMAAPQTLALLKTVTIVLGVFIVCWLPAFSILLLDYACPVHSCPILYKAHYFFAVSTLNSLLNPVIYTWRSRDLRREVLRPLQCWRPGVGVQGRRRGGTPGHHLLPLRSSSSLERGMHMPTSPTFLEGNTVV
Chain of Cytochrome P450 2D6 (P10635 whole entry): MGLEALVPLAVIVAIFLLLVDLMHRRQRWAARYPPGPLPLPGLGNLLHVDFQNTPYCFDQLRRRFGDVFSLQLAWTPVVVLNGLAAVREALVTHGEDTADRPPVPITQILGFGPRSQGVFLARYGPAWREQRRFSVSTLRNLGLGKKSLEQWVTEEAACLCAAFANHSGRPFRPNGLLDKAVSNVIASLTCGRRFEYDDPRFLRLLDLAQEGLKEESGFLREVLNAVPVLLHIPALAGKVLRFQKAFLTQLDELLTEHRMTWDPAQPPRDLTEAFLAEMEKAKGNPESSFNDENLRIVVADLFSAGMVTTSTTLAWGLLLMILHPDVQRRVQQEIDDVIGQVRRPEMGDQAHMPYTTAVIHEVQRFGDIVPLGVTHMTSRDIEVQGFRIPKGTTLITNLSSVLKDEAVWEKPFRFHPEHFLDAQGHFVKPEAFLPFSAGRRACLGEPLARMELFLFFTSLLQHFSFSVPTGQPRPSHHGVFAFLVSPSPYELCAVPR
Chain of Sphingosine 1-phosphate receptor 3 (Q99500 whole entry): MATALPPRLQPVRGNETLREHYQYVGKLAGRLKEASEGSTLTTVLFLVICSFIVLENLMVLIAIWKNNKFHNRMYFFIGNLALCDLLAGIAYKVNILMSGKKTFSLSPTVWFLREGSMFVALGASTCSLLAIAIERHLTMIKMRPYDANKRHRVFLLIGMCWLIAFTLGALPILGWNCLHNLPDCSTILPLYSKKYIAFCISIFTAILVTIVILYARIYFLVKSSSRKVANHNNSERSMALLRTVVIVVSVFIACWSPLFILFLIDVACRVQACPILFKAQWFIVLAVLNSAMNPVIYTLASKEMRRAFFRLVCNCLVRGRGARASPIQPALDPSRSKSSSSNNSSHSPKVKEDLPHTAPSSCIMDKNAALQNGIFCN
Chain of Trypsin (P00761 whole entry): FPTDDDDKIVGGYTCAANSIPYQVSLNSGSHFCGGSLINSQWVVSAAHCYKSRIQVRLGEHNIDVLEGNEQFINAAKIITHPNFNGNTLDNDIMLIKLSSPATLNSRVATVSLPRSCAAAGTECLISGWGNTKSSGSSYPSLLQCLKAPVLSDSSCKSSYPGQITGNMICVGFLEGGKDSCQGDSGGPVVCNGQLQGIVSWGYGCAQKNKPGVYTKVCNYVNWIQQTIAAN
Chain of Cytochrome P450 2C9 (P11712 whole entry): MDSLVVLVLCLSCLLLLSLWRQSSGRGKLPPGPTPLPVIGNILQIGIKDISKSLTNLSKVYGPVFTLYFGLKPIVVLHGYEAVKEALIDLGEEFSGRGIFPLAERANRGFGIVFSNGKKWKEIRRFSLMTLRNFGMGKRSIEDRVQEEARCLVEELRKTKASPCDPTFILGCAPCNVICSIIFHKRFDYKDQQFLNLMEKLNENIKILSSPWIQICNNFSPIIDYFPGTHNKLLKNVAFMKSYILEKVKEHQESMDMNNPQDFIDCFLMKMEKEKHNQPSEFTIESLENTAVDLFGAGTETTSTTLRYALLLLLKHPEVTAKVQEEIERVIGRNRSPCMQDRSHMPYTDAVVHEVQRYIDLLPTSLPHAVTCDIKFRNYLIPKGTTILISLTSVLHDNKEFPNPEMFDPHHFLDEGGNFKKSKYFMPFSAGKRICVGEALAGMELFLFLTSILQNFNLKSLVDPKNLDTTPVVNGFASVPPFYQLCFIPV

Fc1ccc(Nc2nnc(C(F)(F)F)s2)cc1Cl
IC50 (Exodeoxyribonuclease V): > 39.5 µM (inactive) | IC50 [1]: 96.8 µM (inactive) | IC50 [2]: 11 µM (active)

COc1cc(OC)c2c(c1O)OC(c1ccccc1)CC2=O (stereo unspecified)
IC50 [3]: 48.6 µM (active) | IC50 [4]: 91.1 µM (active) | IC50 [5]: 21.8 µM (active) | IC50 [6]: > 100 µM (inactive) | IC50 [7]: > 100 µM (inactive)

CCOc1ccccc1CN1CCC(n2nccc2NC(=O)CCc2ccccc2)CC1
EC50 [8]: 0.473 µM (active) | EC50 [9]: 80.6 µM (active) | EC50 [10]: 59.9 µM (active) | EC50 [11]: 80.1 µM (active) | EC50 [12]: 74.4 µM (active)

CC(C)[C@@H]1CC[C@@H](C)C[C@H]1OC(=O)C[n+]1cc(-c2ccc(Cl)cc2)n2c1CCCCC2
EC50 [13]: 23.8 µM (inconclusive) | IC50 [14]: 1.14 µM (active) | IC50 [15]: 1.16 µM (active) | EC50 [16]: 0.225 µM (active) | CC50 [17]: 4.52 µM (active) | CC50 [18]: > 20 µM (active) | IC50 (cells): 6.86 µM (active) | AC50 [19]: 16.3 µM (active) | AC50 [20]: 8.93 µM (active) | AC50 [21]: 8.56 µM (active) | AC50 [22]: 37 µM (active) | AC50 [23]: 9.97 µM (active)

Cc1cccc(C)c1NC(=O)c1ccc(-c2cccc(Cl)c2)o1
IC50 [24]: > 25 µM (inactive) | IC50 [25]: > 25 µM (inactive) | IC50 [26]: > 25 µM (inactive) | IC50 [27]: > 25 µM (inactive)

FC(F)(F)c1cc(CN2CC[C@@]3(CCCNC3)C2)cc(C(F)(F)F)c1
AC50 (Cytochrome P450 2C19): inconclusive | AC50 (Cytochrome P450 3A4): 3.98 µM (inconclusive) | AC50 (Cytochrome P450 2D6): inconclusive | AC50 (Cytochrome P450 1A2): inconclusive | AC50 (Cytochrome P450 2C9): inconclusive

CCN(CC)CCCNC(=O)CCc1c(C)n(CC)c2cc(-c3ccccc3OC)nn2c1=O
AC50 (Trypsin): 13.1 µM (active) | AC50 (CAAX prenyl protease 1): 6.24 µM (active)
